The record followed here is patent US7741327B2 (Hoffmann-La Roche Inc., priority 2008, dated 2010).

The target of this experiment is T1, Recombinant human liver GK1 (GST-GK) (Homo sapiens, UniProt P35557).
T1 construct: made in house; host or cells: E. coli
T1 sequence (P35557 1-466 isoform P35557-2): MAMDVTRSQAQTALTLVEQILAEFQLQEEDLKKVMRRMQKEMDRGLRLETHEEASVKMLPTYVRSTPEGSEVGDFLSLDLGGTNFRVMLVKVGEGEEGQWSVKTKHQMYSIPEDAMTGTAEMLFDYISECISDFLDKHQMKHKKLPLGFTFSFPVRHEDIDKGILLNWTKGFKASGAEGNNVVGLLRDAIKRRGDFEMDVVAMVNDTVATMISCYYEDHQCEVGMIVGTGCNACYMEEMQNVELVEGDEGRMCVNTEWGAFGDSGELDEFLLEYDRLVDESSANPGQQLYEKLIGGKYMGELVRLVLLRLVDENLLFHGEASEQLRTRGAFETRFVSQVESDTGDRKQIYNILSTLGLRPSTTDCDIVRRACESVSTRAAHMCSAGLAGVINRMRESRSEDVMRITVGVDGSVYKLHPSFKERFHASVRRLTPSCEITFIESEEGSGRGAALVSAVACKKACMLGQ
The experiment can be described thus: In vitro glucokinase activity (G6PDH-coupled NADH assay). The format is biochemical. As to conditions: for SC1.5 (concentration of activator that produced a 50% increase in the activity of GK): 30° C., 5 mM D-glucose, 10% DMSO; for fold act. @ 30 μM: at 30 μM test compound. In short, it runs like this: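 Activation measured as the rate of OD340 rise from G6PDH-coupled NADH production, relative to 10% DMSO control, reported as SC1.5 (concentration for 50% activity increase). Conditions: 30° C, pH 7.1 Hepes, 5 mM glucose, 1 mM ATP, purified recombinant GST-human GK1, compound preincubated 10 min before enzyme addition.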

Structures are written as SMILES.

On to `CC(C)(O)Cn1ccc(NC(=O)[C@H](CC2CCCCC2)N2CC(Oc3cccc(OC(F)(F)F)c3)=CC2=O)n1` [Example 211, (S)-3-cyclohexyl-N-[1-(2-hydroxy-2-methyl-propyl)-1H-pyrazol-3-yl]-2-[2-oxo-4-(3-trifluoromethoxy-phenoxy)-2,5-dihydro-pyrrol-1-yl]-propionamide], for which the “SC1.5 (concentration of activator that produced a 50% increase in the activity of GK)” value was 0.055 µM.

With `Cc1ccc(OC2=CC(=O)N([C@@H](CC3CCCCC3)C(=O)Nc3ccn(CC(C)(C)O)n3)C2)cn1` [Example 212, (S)-3-cyclohexyl-N-[1-(2-hydroxy-2-methyl-propyl)-1H-pyrazol-3-yl]-2-[4-(6-methyl-pyridin-3-yloxy)-2-oxo-2,5-dihydro-pyrrol-1-yl]-propionamide], the “SC1.5 (concentration of activator that produced a 50% increase in the activity of GK)” value is 0.054 µM.

Consider `CC(C)(O)Cn1ccc(NC(=O)[C@H](CC2CCCCC2)N2CC(Oc3ccccc3)=CC2=O)n1` [Example 213, (S)-3-cyclohexyl-N-[1-(2-hydroxy-2-methyl-propyl)-1H-pyrazol-3-yl]-2-(2-oxo-4-phenoxy-2,5-dihydro-pyrrol-1-yl)-propionamide], for which the “SC1.5 (concentration of activator that produced a 50% increase in the activity of GK)” value was 0.028 µM.

As for `CC(C)(O)Cn1ccc(NC(=O)C(C[C@H]2C[C@H](C)C2)N2CC(Oc3ccccc3Cl)=CC2=O)n1` (stereo partly drawn) [Example 214, 2-[4-(2-Chloro-phenoxy)-2-oxo-2,5-dihydro-pyrrol-1-yl]-N-[1-(2-hydroxy-2-methyl-propyl)-1H-pyrazol-3-yl]-3-(trans-3-methyl-cyclobutyl)-propionamide], the “SC1.5 (concentration of activator that produced a 50% increase in the activity of GK)” value was determined as 0.043 µM.

As to `CC(C)(O)Cn1ccc(NC(=O)C(C[C@H]2C[C@@H](C)C2)N2CC(Oc3ccccc3Cl)=CC2=O)n1` (stereo partly drawn) [Example 217, 2-[4-(2-Chloro-phenoxy)-2-oxo-2,5-dihydro-pyrrol-1-yl]-N-[1-(2-hydroxy-2-methyl-propyl)-1H-pyrazol-3-yl]-3-(cis-3-methyl-cyclobutyl)-propionamide], the “SC1.5 (concentration of activator that produced a 50% increase in the activity of GK)” value was found to be 0.137 µM.

As to `CC(F)(F)C[C@@H](C(=O)Nc1ccn(C[C@@H](O)CO)n1)N1CC(Oc2ccccc2Cl)=CC1=O` [Example 218, (S)-2-[4-(2-Chloro-phenoxy)-2-oxo-2,5-dihydro-pyrrol-1-yl]-4,4-difluoro-pentanoic acid [1-((R)-2,3-dihydroxy-propyl)-1H-pyrazol-3-yl]-amide], the “SC1.5 (concentration of activator that produced a 50% increase in the activity of GK)” value stood at 4.538 µM.

On to `O=C(Nc1ccn(C[C@@H](O)CO)n1)C(CC(C(F)(F)F)C(F)(F)F)N1CC(Oc2ccccc2Cl)=CC1=O` (stereo partly drawn) [Example 219, 2-[4-(2-Chloro-phenoxy)-2-oxo-2,5-dihydro-pyrrol-1-yl]-5,5,5-trifluoro-4-trifluoromethyl-pentanoic acid [1-((R)-2,3-dihydroxy-propyl)-1H-pyrazol-3-yl]-amide], for which the “SC1.5 (concentration of activator that produced a 50% increase in the activity of GK)” value was determined as 4.287 µM.

For `O=C(Nc1ccn(C[C@@H](O)CO)n1)C(CCC(F)(F)F)N1CC(Oc2ccccc2Cl)=CC1=O` (stereo partly drawn) [Example 220, 2-[4-(2-Chloro-phenoxy)-2-oxo-2,5-dihydro-pyrrol-1-yl]-5,5,5-trifluoro-pentanoic acid [1-((R)-2,3-dihydroxy-propyl)-1H-pyrazol-3-yl]-amide], the “SC1.5 (concentration of activator that produced a 50% increase in the activity of GK)” value came out at 1.8 µM.

As to `O=C(Nc1ccn(C[C@@H](O)CO)n1)C(CC(F)F)N1CC(Oc2ccccc2Cl)=CC1=O` (stereo partly drawn) [Example 221, 2-[4-(2-Chloro-phenoxy)-2-oxo-2,5-dihydro-pyrrol-1-yl]-N-[1-((R)-2,3-dihydroxy-propyl)-1H-pyrazol-3-yl]-4,4-difluoro-butyramide], the “SC1.5 (concentration of activator that produced a 50% increase in the activity of GK)” value came to 17.303 µM.

`O=C(Nc1ccn(C[C@@H](O)CO)n1)[C@H](CCO)N1CC(Oc2ccccc2Cl)=CC1=O` [Example 222, (S)-2-[4-(2-Chloro-phenoxy)-2-oxo-2,5-dihydro-pyrrol-1-yl]-N-[1-((R)-2,3-dihydroxy-propyl)-1H-pyrazol-3-yl]-4-hydroxy-butyramide]: the “SC1.5 (concentration of activator that produced a 50% increase in the activity of GK)” value worked out at 15.278 µM.

`CSCC[C@@H](C(=O)Nc1ccn(C[C@@H](O)CO)n1)N1CC(Oc2ccccc2Cl)=CC1=O` [Example 223, (S)-2-[4-(2-Chloro-phenoxy)-2-oxo-2,5-dihydro-pyrrol-1-yl]-N-[1-((R)-2,3-dihydroxy-propyl)-1H-pyrazol-3-yl]-4-methylsulfanyl-butyramide]: the “SC1.5 (concentration of activator that produced a 50% increase in the activity of GK)” value came to 0.303 µM.

As to `O=C(Nc1ccn(C[C@@H](O)CO)n1)C(CC(F)(F)F)N1CC(Oc2ccccc2Cl)=CC1=O` (stereo partly drawn) [Example 224, 2-[4-(2-Chloro-phenoxy)-2-oxo-2,5-dihydro-pyrrol-1-yl]-N-[1-((R)-2,3-dihydroxy-propyl)-1H-pyrazol-3-yl]-4,4,4-trifluoro-butyramide], the “SC1.5 (concentration of activator that produced a 50% increase in the activity of GK)” value was more than 30 µM and the “fold act. @ 30 μM” value is 1.4 fold.

For the compound `CC(C)(O)Cn1ccc(NC(=O)C(Cc2c(Cl)cccc2Cl)N2CC(Oc3c(F)cccc3F)=CC2=O)n1` (stereo not drawn) [Example 225, 3-(2,6-Dichloro-phenyl)-2-[4-(2,6-difluoro-phenoxy)-2-oxo-2,5-dihydro-pyrrol-1-yl]-N-[1-(2-hydroxy-2-methyl-propyl)-1H-pyrazol-3-yl]-propionamide], the “SC1.5 (concentration of activator that produced a 50% increase in the activity of GK)” value is more than 30 µM and the “fold act. @ 30 μM” value is 1.4 fold.

On to `CC(CC(C(=O)Nc1ccn(CC(C)(C)O)n1)N1CC(Oc2ccccc2Cl)=CC1=O)C(F)(F)F` (stereo not drawn) [Example 226, 2-[4-(2-Chloro-phenoxy)-2-oxo-2,5-dihydro-pyrrol-1-yl]-5,5,5-trifluoro-4-methyl-pentanoic acid [1-(2-hydroxy-2-methyl-propyl)-1H-pyrazol-3-yl]-amide], for which the “SC1.5 (concentration of activator that produced a 50% increase in the activity of GK)” value amounted to 0.944 µM.

Take `CC(C)(C)CCC(C(=O)Nc1ccn(C[C@@H](O)CO)n1)N1CC(Oc2ccccc2Cl)=CC1=O` (stereo partly drawn) [Example 227, 2-[4-(2-Chloro-phenoxy)-2-oxo-2,5-dihydro-pyrrol-1-yl]-5,5-dimethyl-hexanoic acid [1-((R)-2,3-dihydroxy-propyl)-1H-pyrazol-3-yl]amide]: the “SC1.5 (concentration of activator that produced a 50% increase in the activity of GK)” value was 16.668 µM.

Turning to `CC(C)(O)Cn1ccc(NC(=O)C(CC2CC3CCC2C3)N2CC(Oc3c(F)cccc3F)=CC2=O)n1` (stereo not drawn) [Example 228, 3-Bicyclo[2.2.1]hept-2-yl-2-[4-(2,6-difluoro-phenoxy)-2-oxo-2,5-dihydro-pyrrol-1-yl]-N-[1-(2-hydroxy-2-methyl-propyl)-1H-pyrazol-3-yl]-propionamide], the “SC1.5 (concentration of activator that produced a 50% increase in the activity of GK)” value was 0.365 µM.

For the compound `CC(C)(O)Cn1ccc(NC(=O)C(CC2C3CCC2CC3)N2CC(Oc3ccccc3Cl)=CC2=O)n1` (stereo not drawn) [Example 229, 3-bicyclo[2.2.1]hept-7-yl-2-[4-(2-chloro-phenoxy)-2-oxo-2,5-dihydro-pyrrol-1-yl]-N-[1-(2-hydroxy-2-methyl-propyl)-1H-pyrazol-3-yl]-propionamide], the “SC1.5 (concentration of activator that produced a 50% increase in the activity of GK)” value stood at 1.109 µM.

Turning to `COCC[C@@H](C(=O)Nc1ccn(C[C@@H](O)CO)n1)N1CC(Oc2ccccc2Cl)=CC1=O` [Example 230, (S)-2-[4-(2-Chloro-phenoxy)-2-oxo-2,5-dihydro-pyrrol-1-yl]-N-[1-((R)-2,3-dihydroxy-propyl)-1H-pyrazol-3-yl]-4-methoxy-butyramide], the “SC1.5 (concentration of activator that produced a 50% increase in the activity of GK)” value amounted to 6.139 µM.

On to `CC(C)(O)Cn1ccc(NC(=O)[C@H](CC2CCCCC2)N2CC(Nc3ccc(Cl)c(Cl)c3)=CC2=O)n1` [Example 231, (S)-3-Cyclohexyl-2-[4-(3,4-dichloro-phenylamino)-2-oxo-2,5-dihydro-pyrrol-1-yl]-N-[1-(2-hydroxy-2-methyl-propyl)-1H-pyrazol-3-yl]-propionamide], for which the “SC1.5 (concentration of activator that produced a 50% increase in the activity of GK)” value was determined as 5.931 µM.

As for `CC(C)NC1=CC(=O)N([C@@H](CC2CCCCC2)C(=O)Nc2ccn(CC(C)(C)O)n2)C1` [Example 232, (S)-3-cyclohexyl-N-[1-(2-hydroxy-2-methyl-propyl)-1H-pyrazol-3-yl]-2-(4-isopropylamino-2-oxo-2,5-dihydro-pyrrol-1-yl)-propionamide], the “SC1.5 (concentration of activator that produced a 50% increase in the activity of GK)” value turned out to be 12.232 µM.

As to `CCN(C)C1=CC(=O)N([C@@H](CC2CCCCC2)C(=O)Nc2ccn(CC(C)(C)O)n2)C1` [Example 233, (S)-3-cyclohexyl-2-[4-(ethyl-methyl-amino)-2-oxo-2,5-dihydro-pyrrol-1-yl]-N-[1-(2-hydroxy-2-methyl-propyl)-1H-pyrazol-3-yl]-propionamide], the “SC1.5 (concentration of activator that produced a 50% increase in the activity of GK)” value is 13.348 µM.

In the case of `CC(C)NC1=CC(=O)N([C@@H](CC2CCCC2)C(=O)Nc2ccn(CC(C)(C)O)n2)C1` [Example 234, (S)-3-cyclopentyl-N-[1-(2-hydroxy-2-methyl-propyl)-1H-pyrazol-3-yl]-2-(4-isopropylamino-2-oxo-2,5-dihydro-pyrrol-1-yl)-propionamide], the “SC1.5 (concentration of activator that produced a 50% increase in the activity of GK)” value amounted to 4.624 µM.
